In article PMC8041284, “Tunable Methacrylamides for Covalent Ligand Directed Release Chemistry” (Journal of the American Chemical Society, 2021):
Like-named read-outs stand apart in the source and are kept apart here.

Target: BTK (Homo sapiens, UniProt Q06187)
Assay: biochemical
[1] = read-out: BTK inhibition (%), 0.75 uM BTK, […] probe 3l, 15 min preincubation

Chain of BTK (Q06187 402-655 limits assumed): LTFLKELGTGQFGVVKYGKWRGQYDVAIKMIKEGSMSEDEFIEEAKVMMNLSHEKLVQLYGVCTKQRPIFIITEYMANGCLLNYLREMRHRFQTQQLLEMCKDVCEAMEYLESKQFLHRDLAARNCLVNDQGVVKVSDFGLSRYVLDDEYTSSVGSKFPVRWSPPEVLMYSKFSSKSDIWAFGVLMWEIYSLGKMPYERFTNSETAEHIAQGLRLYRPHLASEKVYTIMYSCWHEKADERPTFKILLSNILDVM

| Structure (SMILES) | inhibition at 10 µM [1] [%] | inhibition at 10 µM (read-out: BTK inhibition (%)) [%] |
| --- | --- | --- |
| O=C(c1ccccc1O)c1[nH]c(Cl)c(Cl)c1-n1c(C(=O)c2ccccc2O)cc(Cl)c1Cl [PCM-0215850] | 117 |  |
| CN(C)CCC(c1ccc(Cl)cc1)c1ccccn1 (stereo not shown) [PCM-0064500] | 6.9 |  |
| Cn1c([N+](=O)[O-])cnc1COC(N)=O [PCM-0086329] | -12.5 |  |
| O=C(O)c1ccc(O)cc1 [PCM-0214982] | -10.9 |  |
| NCCOc1cc(C(=O)Nc2cc(OCCN)c3ccccc3n2)nc(C(=O)Nc2cc(OCCN)c3ccccc3n2)c1 [PCM-0215476] | 59.5 |  |
| O=C(O)c1cccnc1Nc1cccc(C(F)(F)F)c1 [PCM-0064877] | 24.1 |  |
| CC1(C)[C@@H]2CC[C@@]1(C)[C@@H](O)C2 [PCM-0214946] | 3.1 |  |
| C[n+]1ccccc1/C=N/O [PCM-0086551] | -18.5 |  |
| CC(=O)O[C@@H]1[C@H]2[C@@H](OC(=O)Cc3ccccc3)[C@@H](C)C[C@]2(OC(C)=O)C(=O)/C(C)=C/[C@@H]2[C@H](CC[C@]13CO3)C2(C)C [PCM-0216313] |  | -27.8 |
| CCN1CCN(Cc2ccc(-c3cc4c(N[C@H](C)c5ccccc5)ncnc4[nH]3)cc2)CC1 [PCM-0214628] | 41.4 |  |
| CC(C)(C)c1nc(-c2ccc(NC(=O)Nc3cccc(C(F)(F)F)c3)c3ccccc23)c2c(N)nccn12 [PCM-0216026] | 79.3 |  |
| Clc1ccc(Nc2nnc(Cc3ccncc3)c3ccccc23)cc1 [PCM-0086134] | -14.5 |  |
| CC(C)c1cc2c(cc1S(=O)(=O)O)[C@@]1(C)CCC[C@@](C)(C(=O)O)[C@@H]1CC2 [PCM-0216123] | 3.9 |  |
| c1csc(-c2ccc(-c3cccs3)s2)c1 [PCM-0215157] | 0 |  |
| O=[N+]([O-])c1ccc(Nc2nc(N3CCOCC3)nc(N3CCOCC3)n2)cc1 [PCM-0215468] | 0 |  |
| CCc1cc2c(cc1CC)CC(NC[C@H](O)c1ccc(O)c3[nH]c(=O)ccc13)C2 [PCM-0095564] | 19.5 |  |
| COc1c(C)c(O)cc2[o+]c(-c3ccccc3)ccc12 [PCM-0216513] | 38.6 |  |
| Clc1ccc(COC(Cn2ccnc2)c2ccc(Cl)cc2Cl)cc1 (stereo not shown) [PCM-0085902] | 7.8 |  |
| C[C@@H]1CC[C@]2(C(=O)O[C@@H]3O[C@H](CO)[C@@H](O)[C@H](O)[C@H]3O)CC[C@]3(C)C(=CC[C@@H]4[C@@]5(C)CC[C@H](O[C@@H]6OC[C@H](O)[C@H](O)[C@H]6O)C(C)(C)[C@@H]5CC[C@]43C)[C@@H]2[C@]1(C)O [PCM-0216435] | 7.7 |  |
| CC(C)=CCC/C(C)=C/CC/C(C)=C/CC/C(C)=C/CC1=C(C)C(=O)c2ccccc2C1=O [PCM-0216051] | 2.3 |  |
| Cc1cccc(N(C)C(=S)Oc2ccc3ccccc3c2)c1 [PCM-0007505] | 4.7 |  |
| CC(C)c1ccc(NC(=O)Cn2cnc3c2c(=O)n(C)c(=O)n3C)cc1 [PCM-0095403] | -12.5 |  |
| CN(C)c1ccc2nc3ccc(=[N+](C)C)cc-3sc2c1 [PCM-0090465] | 42.8 |  |
| O=C(O)C(O)Cc1ccc(O)c(O)c1 (stereo not shown) [PCM-0089145] | 18.7 |  |
| CNCCCC12CCC(c3ccccc31)c1ccccc12 [PCM-0064754] | 11.7 |  |

| Structure (SMILES) | inhibition at 10 µM [1] [%] | inhibition at 10 µM (read-out: BTK inhibition (%)) [%] |
| --- | --- | --- |
| Cc1nn(C)c(COc2ccc(N3CCN(S(=O)(=O)N(C)C)CC3)cc2)c1-c1cccc2c(CCCOc3cccc4ccccc34)c(C(=O)O)n(CCN3CCOCC3)c12 [PCM-0215538] | 5.1 |  |
| CC(C)=CCCC(C)CCO (stereo not shown) [PCM-0216208] | -7.7 |  |
| CCCCCN(C)CCC(O)(P(=O)(O)O)P(=O)(O)O [PCM-0065595] | -0.9 |  |
| COC(=O)CCSCc1ccc(-c2onc(C)c2NC(=O)OC(C)c2ccccc2Cl)cc1 (stereo not shown) [PCM-0095376] | 20.2 |  |
| CC(C)=CCCC(C)CC=O (stereo not shown) [PCM-0216209] | 4.6 |  |
| CCN(CC)C(=O)c1ccc(C2=CC3(CCNCC3)Oc3cccc(O)c32)cc1 [PCM-0094948] | -14 |  |
| CC(C)=CCC[C@](C)(O[C@@H]1O[C@H](CO[C@@H]2OC[C@@H](O)[C@H](O)[C@H]2O)[C@@H](O)[C@H](O)[C@H]1O)[C@H]1CC[C@]2(C)[C@@H]1[C@H](O)C[C@@H]1[C@@]3(C)CC[C@H](O[C@@H]4O[C@H](CO)[C@@H](O)[C@H](O)[C@H]4O[C@@H]4O[C@H](CO)[C@@H](O)[C@H](O)[C@H]4O)C(C)(C)[C@@H]3CC[C@]12C [PCM-0216464] | 4.6 |  |
| CCCCCOC(=O)Nc1nc(=O)n([C@@H]2O[C@H](C)[C@@H](O)[C@H]2O)cc1F [PCM-0094987] | -11.7 |  |
| CCCCC1OC(=O)c2ccccc21 (stereo not shown) [PCM-0216506] | 6.9 |  |
| Cc1ccsc1C(=CCCN1CCC[C@@H](C(=O)O)C1)c1sccc1C [PCM-0214833] | -7 |  |
| CC1(C)[C@@H]2CC[C@@]1(C)C(=O)C2 [PCM-0214819] | 1.6 |  |
| COc1cc2ncc(-c3ccccc3)nc2cc1OC [PCM-0095612] | -13.8 |  |
| C#CCC(Cc1cnc2nc(N)nc(N)c2n1)c1ccc(C(=O)N[C@@H](CCC(=O)O)C(=O)O)cc1 (stereo partly shown) [PCM-0095176] | 1.6 |  |
| O=C(O[C@@H]1Cc2c(O)cc(O)cc2O[C@H]1c1cc(O)c(O)c(O)c1)c1cc(O)c(O)c(O)c1 [PCM-0216357] | 40.9 |  |
| C[C@]12N[C@H](Cc3ccccc31)c1ccccc12 [PCM-0064989] |  | 3.9 |
| O=C(O)C(Cl)Cl [PCM-0215858] | -8.5 |  |
| O=c1[nH]c2ccccc2n1C1CCN(Cc2ccc(-c3[nH]c4cc5ncnc5cc4nc3-c3ccccc3)cc2)CC1 [PCM-0215535] | 18.6 |  |
| CC1(C)O[C@H]1COc1c2ccoc2cc2oc(=O)ccc12 [PCM-0216499] | 0.8 |  |
| Cc1ccc(-n2nc(C(C)(C)C)cc2NC(=O)Nc2ccc(OCCN3CCOCC3)c3ccccc23)cc1 [PCM-0095136] | 9.7 |  |
| C#Cc1cccc(Nc2ncnc3cc(OCCOC)c(OCCOC)cc23)c1 [PCM-0085975] | 1.7 |  |
| NCCNc1ccc(NCCN)c2c1C(=O)c1ccncc1C2=O [PCM-0215996] | 23.2 |  |
| C[C@H](O)[C@H](O)c1cnc2nc(N)[nH]c(=O)c2n1 [PCM-0216576] | 6.8 |  |
| CC(ONC(=O)c1cc(C(F)(F)F)cc(C(F)(F)F)c1)C(=O)Nc1ccc(Cl)cc1 (stereo not shown) [PCM-0215433] | 7.7 |  |
| O=C1NC(=O)/C(=C/c2cccc(C(F)(F)F)c2)S1 [PCM-0095598] | 4.8 |  |
| O=C(O)CSc1nnc(Br)n1-c1ccc(C2CC2)c2ccccc12 [PCM-0214823] | -21.8 |  |

| Structure (SMILES) | inhibition at 10 µM [1] [%] | inhibition at 10 µM (read-out: BTK inhibition (%)) [%] |
| --- | --- | --- |
| CC(C)=CCC[C@@](C)(O)[C@H]1CC[C@]2(C)[C@@H]1[C@H](O)C[C@@H]1[C@@]3(C)CC[C@H](O[C@@H]4O[C@H](CO)[C@@H](O)[C@H](O)[C@H]4O[C@@H]4O[C@H](CO)[C@@H](O)[C@H](O)[C@H]4O)C(C)(C)[C@@H]3CC[C@]12C [PCM-0216609] | 21.6 |  |
| C=CC(=O)N1CC[C@@H](Oc2nc(Nc3ccc(N4CCC(N5CCN(C)CC5)CC4)cc3)c(C(N)=O)nc2CC)C1 [PCM-0215788] | 91 |  |
| CO[C@H]1O[C@H](COS(=O)(=O)O)[C@@H](O[C@@H]2O[C@@H](C(=O)O)[C@@H](O[C@H]3O[C@H](COS(=O)(=O)O)[C@@H](O[C@@H]4O[C@H](C(=O)O)[C@@H](O[C@H]5O[C@H](COS(=O)(=O)O)[C@@H](O)[C@H](O)[C@H]5NS(=O)(=O)O)[C@H](O)[C@H]4O)[C@H](OS(=O)(=O)O)[C@H]3NS(=O)(=O)O)[C@H](O)[C@H]2OS(=O)(=O)O)[C@H](O)[C@H]1NS(=O)(=O)O [PCM-0215897] | -13.6 |  |
| Cc1nc2n(c(=O)c1CCN1CCC(c3noc4cc(F)ccc34)CC1)CCCC2 [PCM-0086311] | 1.7 |  |
| c1ccc(CNc2nc(NCc3ccccc3)c3ccccc3n2)cc1 [PCM-0215216] | 10.8 |  |
| CCOCCn1c(C2CCN(CCc3ccc(C(C)(C)C(=O)O)cc3)CC2)nc2ccccc21 [PCM-0215887] | 10.2 |  |
| CCCCCCOc1cc(C)c(O)c(C)c1C [PCM-0216088] | -25.5 |  |
| COc1ccc(CCCOC(Cn2ccnc2)c2ccc(OC)cc2)cc1 (stereo not shown) [PCM-0215655] | -8.5 |  |
| Cc1c(C)c(NCC(=O)N(C)C2CCN(Cc3ccc(C(N)=O)cc3)CC2)c(C)c(C)c1N [PCM-0215800] | 12.4 |  |
| O=C(/C=C/c1ccc(O[C@@H]2O[C@H](CO)[C@@H](O)[C@H](O)[C@H]2O)cc1)c1ccc(O)cc1O [PCM-0216527] | 19.3 |  |
| CCC[C@H](N[C@H]1CCc2cc(F)cc(F)c2C1)C(=O)Nc1cn(C(C)(C)CNCC(C)(C)C)cn1 [PCM-0215524] | -3.9 |  |
| CN1CCC(CNc2ccc3ncc(-c4cccc(OC(F)(F)F)c4)n3n2)CC1 [PCM-0095238] | 45.5 |  |
| OCC(CO)N[C@H]1C[C@](O)(CO)[C@@H](O)[C@H](O)[C@H]1O [PCM-0214770] | -8.6 |  |
| CC(O)(CS(=O)(=O)c1ccc(F)cc1)C(=O)Nc1ccc(C#N)c(C(F)(F)F)c1 (stereo not shown) [PCM-0065600] | 11.7 |  |
| C[C@@H]1C(=O)O[C@H]2[C@H](O)[C@]34[C@@H]5OC(=O)[C@]3(O[C@@H]3OC(=O)[C@H](O)[C@@]34[C@H](C(C)(C)C)[C@H]5O)[C@@]12O [PCM-0215011] |  | 5.4 |
| C=C(Cc1ccccc1Cl)C(=O)OCC [PCM-0215835] | -4.1 |  |
| C[N+]1(C)CCC(=C(c2ccccc2)c2ccccc2)CC1 [PCM-0085922] | 13.2 |  |
| COC(=O)c1ccccc1O [PCM-0215919] | -10.9 |  |
| CN1CC(O)c2cc(N=NC(N)=O)c(O)cc21 (stereo not shown) [PCM-0216016] | 28.3 |  |
| CC1COC2(CCN(c3nc(=O)c4cc(C(F)(F)F)cc([N+](=O)[O-])c4s3)CC2)O1 (stereo not shown) [PCM-0095074] | 4.7 |  |
| CCCS(=O)(=O)Nc1ccc(F)c(C(=O)c2c[nH]c3ncc(Cl)cc23)c1F [PCM-0094979] | 23.4 |  |
| CCCCc1nc2cc(/C=C/C(=O)NO)ccc2n1CCN(CC)CC [PCM-0095187] | 9.7 |  |
| CC1(C)CC[C@]2(C(=O)O)CC[C@]3(C)C(=CC[C@@H]4[C@@]5(C)CC[C@H](O)C(C)(C)[C@@H]5CC[C@]43C)[C@@H]2C1 [PCM-0214680] | 27.2 |  |
